Measured values: EPA's ToxValDB 9.5 (doi:10.2903/j.efsa.2010.1523)
Converted amounts (≈) assume the structure as drawn.

Assays:
[1] = test system: Aphidius rhopalosiphi; experiment: LR50; higher = less toxic; conditions: not reported; mortality
[2] = test system: Daphnia magna; conditions: chronic/long-term; duration: 21 days; reproduction
[3] = test system: Rattus norvegicus; conditions: acute; oral; mortality
[4] = test system: Colinus virginianus; conditions: acute, oral, mortality
[5] = test system: Mus musculus; conditions: acute; oral; mortality
[6] = test system: Tagia sp.; conditions: acute; duration: 14 days; mortality
[7] = test system: Canidae; conditions: chronic; duration: 1 years; oral; Dog Other; hematological
[8] = test system: Coturnix japonica; conditions: reproduction developmental
[9] = test system: Oryctolagus sp.
[10] = test system: Oncorhynchus mykiss
[11] = test system: Apis mellifera; conditions: acute; duration: 48 hours; dermal; mortality

SMILES: Cc1cnc2c(C(=O)O)c(Cl)ccc2c1 [Quinmerac]
- LR50 [1]: > 500 g/ha
- NOEC [2]: 100 mg/L
- LD50 [3]: > 5000 mg/kg-day
- LC50 ([4]; diet): > 933 mg/kg-day
- LD50 [4]: > 2000 mg/kg-day
- LD50 [5]: > 5000 mg/kg-day
- LC50 [6]: > 1000 mg/kg
- NOAEL [7]: 7.9 mg/kg-day
- NOEC [8]: 173 mg/kg-day
- NOEL ([9]; chronic): 100 mg/kg-day
- NOAEL ([9]; developmental, development): 30 mg/kg-day
- LC50 ([10]; acute, duration: 96 hours, mortality): 86.8 µg/mL (≈ 392 µM)
- NOEC ([10]; chronic/long-term, duration: 28 days, growth): 3.16 mg/L
- LD50 [11]: > 100 µg/piece
